The source made the active and inactive calls. The calls are words filed in the database; no cut-off is given here.
Assays:
Homo sapiens = species: Homo sapiens; assay: Selectivity ratio of IC50 for human recombinant HDAC1 to IC50 for human recombinant HDAC6
Histone deacetylase 1 = Histone deacetylase 1 (Homo sapiens, UniProt Q13547); assay: Inhibition of human recombinant HDAC1 using RHKKAc peptide as substrate incubated for 5 to mins prior to substrate addition measured after 2 hrs
[1] = molecular target: T1, Protein deacetylase HDAC6 (Homo sapiens, UniProt Q9UBN7); assay: Inhibition of human recombinant HDAC6 using RHKKAc peptide as substrate incubated for 5 to mins prior to substrate addition measured after 2 hrs
T1 sequence (Q9UBN7 whole entry): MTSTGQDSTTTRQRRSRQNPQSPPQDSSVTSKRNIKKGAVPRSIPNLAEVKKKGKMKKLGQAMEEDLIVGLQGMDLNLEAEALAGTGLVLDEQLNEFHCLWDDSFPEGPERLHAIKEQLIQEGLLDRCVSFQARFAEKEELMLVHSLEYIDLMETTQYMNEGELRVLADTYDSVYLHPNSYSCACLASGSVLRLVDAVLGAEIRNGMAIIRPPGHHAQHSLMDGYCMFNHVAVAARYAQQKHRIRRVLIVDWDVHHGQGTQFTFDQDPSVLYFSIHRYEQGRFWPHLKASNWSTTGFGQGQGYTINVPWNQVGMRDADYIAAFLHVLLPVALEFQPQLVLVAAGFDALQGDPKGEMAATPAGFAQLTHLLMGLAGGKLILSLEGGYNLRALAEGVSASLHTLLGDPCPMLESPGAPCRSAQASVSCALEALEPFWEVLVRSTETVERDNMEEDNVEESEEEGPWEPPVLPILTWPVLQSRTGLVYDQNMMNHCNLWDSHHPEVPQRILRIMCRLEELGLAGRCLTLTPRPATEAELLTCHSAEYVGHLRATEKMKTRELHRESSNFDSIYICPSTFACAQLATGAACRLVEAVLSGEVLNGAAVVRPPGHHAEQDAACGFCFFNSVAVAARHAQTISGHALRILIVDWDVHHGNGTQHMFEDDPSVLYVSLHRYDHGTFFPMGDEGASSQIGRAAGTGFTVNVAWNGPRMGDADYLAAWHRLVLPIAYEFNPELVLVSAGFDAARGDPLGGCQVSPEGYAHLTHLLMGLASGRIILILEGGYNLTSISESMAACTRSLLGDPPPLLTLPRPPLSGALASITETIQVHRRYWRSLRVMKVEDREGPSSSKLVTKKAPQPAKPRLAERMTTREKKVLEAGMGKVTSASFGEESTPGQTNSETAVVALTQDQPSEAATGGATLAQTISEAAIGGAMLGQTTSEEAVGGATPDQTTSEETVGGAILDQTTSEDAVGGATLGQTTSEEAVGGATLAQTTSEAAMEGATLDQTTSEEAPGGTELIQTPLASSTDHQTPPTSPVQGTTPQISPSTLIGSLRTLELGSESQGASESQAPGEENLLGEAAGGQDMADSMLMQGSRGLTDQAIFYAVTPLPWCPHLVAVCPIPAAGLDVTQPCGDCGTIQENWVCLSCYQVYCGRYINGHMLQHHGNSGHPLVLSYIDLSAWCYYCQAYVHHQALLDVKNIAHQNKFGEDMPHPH

[2] = Immunosuppressive activity against C57BL/6 mouse CFSE-labelled effector T cells assessed as Treg suppression of Teffector proliferation AUC at 0.5 uM after 3 to 4 days by flow cytometry relative to control; assay type: functional, T-cell
[3] = Immunosuppressive activity against C57BL/6 mouse CFSE-labelled effector T cells assessed as Treg suppression of Teffector proliferation AUC at […] after 3 to 4 days by flow cytometry relative to control; assay type: functional, T-cell
[4] = Immunosuppressive activity against C57BL/6 mouse CFSE-labelled effector T cells assessed as inhibition of T regulatory cells-mediated proliferation at Treg:Teff ratio of 1:16 at 1 uM after 3 to 4 days by flow cytometry (reference value: 86.9%); assay type: functional; settings: C57BL/6, T-cell
[5] = Immunosuppressive activity against C57BL/6 mouse CFSE-labelled effector T cells assessed as inhibition of T regulatory cells-mediated proliferation at Treg:Teff ratio of 1:2 at 1 uM after 3 to 4 days by flow cytometry (reference value: 64.8%); assay type: functional; settings: C57BL/6, T-cell
[6] = Immunosuppressive activity against C57BL/6 mouse CFSE-labelled effector T cells assessed as inhibition of T regulatory cells-mediated proliferation at Treg:Teff ratio of 1:1 at 1 uM after 3 to 4 days by flow cytometry (reference value: 42.2%); assay type: functional; settings: C57BL/6, T-cell
[7] = Immunosuppressive activity against C57BL/6 mouse CFSE-labelled effector T cells assessed as inhibition of T regulatory cell-mediated proliferation at Treg:Teff ratio of 1:4 at 1 uM after 3 to 4 days by flow cytometry (reference value: 74.2%); assay type: functional; settings: C57BL/6, T-cell
Mus musculus = assay: Immunosuppressive activity against HDAC6 deficient CD4+CD25- CFSE-labelled effector T cells xenografted in RAG-/- mouse assessed as inhibition of FoxP3+,CD4+CD25+ T regulatory cells-mediated proliferation at 1 mg/kg, ip administered qd for 7 days measured on day 8 by flow cytometry; assay type: functional, organism-based; set-up: dose 1 mg/kg; settings: T-cell
[8] = Immunosuppressive activity against C57BL/6 mouse CFSE-labelled effector T cells assessed as Treg suppression of Teffector proliferation AUC at 0.25 uM after 3 to 4 days by flow cytometry relative to control; assay type: functional, T-cell
T-cell [9] = assay: Immunosuppressive activity against C57BL/6 mouse CFSE-labelled effector T cells assessed as inhibition of T regulatory cells-mediated proliferation at 0.25 uM after 3 to 4 days by flow cytometry relative to control; assay type: functional, cell-based
[10] = Immunosuppressive activity against C57BL/6 mouse CFSE-labelled effector T cells assessed as Treg suppression of Teffector proliferation AUC at 1 uM after 3 to 4 days by flow cytometry relative to control; assay type: functional, T-cell
T-cell [11] = assay: Immunosuppressive activity against C57BL/6 mouse CFSE-labelled effector T cells assessed as inhibition of T regulatory cells-mediated proliferation at 1 uM after 3 to 4 days by flow cytometry relative to control; assay type: functional, cell-based
[12] = Immunosuppressive activity against C57BL/6 mouse CFSE-labelled effector T cells assessed as inhibition of T regulatory cell-mediated proliferation at Treg:Teff ratio of 1:16 at 0.5 uM after 3 to 4 days by flow cytometry (reference value: 86.9%); assay type: functional; settings: C57BL/6, T-cell
[13] = Immunosuppressive activity against C57BL/6 mouse CFSE-labelled effector T cells assessed as inhibition of T regulatory cell-mediated proliferation at Treg:Teff ratio of 1:4 at 0.5 uM after 3 to 4 days by flow cytometry (reference value: 74.2%); assay type: functional; settings: C57BL/6, T-cell
T-cell [14] = assay: Immunosuppressive activity against C57BL/6 mouse CFSE-labelled effector T cells assessed as inhibition of T regulatory cell-mediated cell division at Treg:Teff ratio of 1:2 at 0.5 uM after 3 to 4 days by flow cytometry (reference value: 64.8%); assay type: functional; settings: C57BL/6, T-cell
[15] = Immunosuppressive activity against C57BL/6 mouse CFSE-labelled effector T cells assessed as inhibition of T regulatory cell-mediated proliferation at Treg:Teff ratio of 1:8 at 0.5 uM after 3 to 4 days by flow cytometry (reference value: […]); assay type: functional; settings: C57BL/6, T-cell
T-cell [16] = assay: Immunosuppressive activity against C57BL/6 mouse CFSE-labelled effector T cells assessed as inhibition of T regulatory cell-mediated cell division at Treg:Teff ratio of 1:1 at 0.5 uM after 3 to 4 days by flow cytometry (reference value: 42.2%); assay type: functional; settings: C57BL/6, T-cell

Histone deacetylase 1, sequence (Q13547 whole entry): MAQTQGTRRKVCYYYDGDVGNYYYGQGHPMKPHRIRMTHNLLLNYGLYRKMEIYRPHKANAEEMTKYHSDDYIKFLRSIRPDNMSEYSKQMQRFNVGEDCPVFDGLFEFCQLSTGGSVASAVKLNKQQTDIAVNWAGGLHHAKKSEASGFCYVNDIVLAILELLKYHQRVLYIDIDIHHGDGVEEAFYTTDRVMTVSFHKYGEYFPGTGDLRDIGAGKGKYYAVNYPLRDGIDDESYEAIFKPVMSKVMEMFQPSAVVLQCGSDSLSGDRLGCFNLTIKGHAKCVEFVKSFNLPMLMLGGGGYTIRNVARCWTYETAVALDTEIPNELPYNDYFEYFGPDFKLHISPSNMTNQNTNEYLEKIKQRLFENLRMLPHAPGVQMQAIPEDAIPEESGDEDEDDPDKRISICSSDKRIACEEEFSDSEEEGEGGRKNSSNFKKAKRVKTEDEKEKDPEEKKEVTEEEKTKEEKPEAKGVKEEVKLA

| Structure (SMILES) | Ratio IC50 (Homo sapiens) | IC50 (Histone deacetylase 1) | IC50 [1] | further results |
| --- | --- | --- | --- | --- |
| O=C(NO)c1ccc(Cn2c3c(c4ccccc42)CCN(Cc2ccccc2)C3)cc1 | 4950 | 4320 nM | 0.872 nM | – |
| COc1ccc2c(c1)c1c(n2Cc2ccc(C(=O)NO)cc2)CCN(C)C1 | 614 | 1880 nM | 3.06 nM | – |
| COc1ccc(CN2CCc3c(c4ccccc4n3Cc3ccc(C(=O)NO)cc3)C2)cc1 | 1520 | 4640 nM | 3.05 nM | – |
| Cc1ccc2c(c1)c1c(n2Cc2ccc(C(=O)NO)cc2)CCN(C)C1 | 422 | 2070 nM | 4.9 nM | – |
| CC(C)N1CCc2c(c3ccccc3n2Cc2ccc(C(=O)NO)cc2)C1 | 1750 | 15700 nM | 8.96 nM | – |
| C=CCN1CCc2c(c3ccccc3n2Cc2ccc(C(=O)NO)cc2)C1 | 5990 | 5820 nM | 0.972 nM | Ratio [2]: 1.65 |
| Cc1cc(C)c2c3c(n(Cc4ccc(C(=O)NO)cc4)c2c1)CCN(C)C3 | 268 | 10300 nM | 38.4 nM | – |
| NC(=O)CN1CCc2c(c3ccccc3n2Cc2ccc(C(=O)NO)cc2)C1 | 4980 | 3980 nM | 0.799 nM | Ratio [3]: 1.69 |
| O=C(NO)c1ccc(Cn2c3c(c4ccccc42)CCNC3)cc1 | 3900 | 9700 nM | 2.49 nM | – |
| CN1CCc2c(c3ccccc3n2Cc2ccc(C(=O)NO)cc2)C1 [TUBASTATIN A] | – | – | – | inhibition at 1 µM [4]: 75.4%; inhibition at 1 µM [5]: 44.4%; inhibition at 1 µM [6]: 37.8%; inhibition at 1 µM [7]: 58.7% |
| Cc1cccc2c3c(n(Cc4ccc(C(=O)NO)cc4)c12)CCN(C)C3 | 636 | 22100 nM | 34.7 nM | – |
| CN1CCc2c(c3cc(Br)ccc3n2Cc2ccc(C(=O)NO)cc2)C1 | 606 | 427 nM | 0.704 nM | inhibition (Mus musculus): Active; Ratio [8]: 1.87; inhibition (T-cell [9]): Active |
| NC(=O)CCN1CCc2c(c3ccccc3n2Cc2ccc(C(=O)NO)cc2)C1 | 3510 | 1610 nM | 0.459 nM | – |
| O=C(NO)c1ccc(Cn2c3c(c4ccccc42)CNCC3)cc1 | 2500 | 16400 nM | 6.56 nM | Ratio [3]: 1.76 |
| CN1CCc2c(c3cc(Cl)ccc3n2Cc2ccc(C(=O)NO)cc2)C1 | 1000 | 1020 nM | 1.02 nM | – |
| CC(C)(C)OC(=O)N1CCc2c(c3ccccc3n2Cc2ccc(C(=O)NO)cc2)C1 | 3830 | 8620 nM | 2.25 nM | – |
| CN1CCc2c(n(Cc3ccc(C(=O)NO)cc3)c3ccccc23)C1 | 3700 | – | 1.4 nM | Ratio [10]: 1.63; inhibition (T-cell [11]): Active |
| O=C(NO)c1ccc(Cn2c3c(c4ccccc42)CN(Cc2ccncc2)CC3)cc1 | 4710 | 2740 nM | 0.582 nM | inhibition at 0.5 µM [12]: 72.8%; inhibition at 0.5 µM [13]: 62.3%; inhibition (Mus musculus): Active; inhibition at 0.5 µM (T-cell [14]): 51.6%; inhibition at 0.5 µM [15]: 69.7%; Ratio [2]: 2.13; inhibition at 0.5 µM (T-cell [16]): 37.8% |
| COc1cccc(CN2CCc3c(c4ccccc4n3Cc3ccc(C(=O)NO)cc3)C2)c1 | 1750 | 5190 nM | 2.96 nM | Ratio [2]: 1.9 |
| O=C(NO)c1ccc(Cn2c3c(c4ccccc42)CN(Cc2ccccc2)CC3)cc1 | 7150 | 10300 nM | 1.44 nM | – |
| NC(=O)CCCN1CCc2c(c3ccccc3n2Cc2ccc(C(=O)NO)cc2)C1 | 1830 | 7450 nM | 4.06 nM | – |
| CN1CCc2c(c3cc(C(C)(C)C)ccc3n2Cc2ccc(C(=O)NO)cc2)C1 | 626 | 14100 nM | 22.5 nM | – |
| CCN1CCc2c(c3ccccc3n2Cc2ccc(C(=O)NO)cc2)C1 | 3410 | 10200 nM | 2.99 nM | – |
| Cc1ccc2c3c(n(Cc4ccc(C(=O)NO)cc4)c2c1)CCN(C)C3 | 352 | 4050 nM | 11.5 nM | – |

Reference: ChEMBL document CHEMBL2016572, “Second-generation histone deacetylase 6 inhibitors enhance the immunosuppressive effects of Foxp3+ T-regulatory cells” (J Med Chem, 2012)
